From patent US5079247A, “N^1 -substituted benz(cd)indol-2-imine compounds as cardiovascular agents” (American Cyanamid Company, priority 1990, dated 1992)

Columns and labels:
[1] = test system: spontaneously hypertensive rats of the Okamoto strain; assay: Hypotensive activity in spontaneously hypertensive rats (method of Chan and Poorvin); format: in vivo, rat; conditions: by gavage, 100 mg/kg or less, two doses 24 hours apart; MABP at 28 hours after initial dose; average baseline MABP 160±1.5 mm of mercury
Method: The novel compounds of the present invention are active hypotensive agents and were tested for hypotensive activity by the method of P. S. Chan and D. Poorvin, Clinical and Experimental Hypertension, 1 (6), 817-830 (1979). Male, 16 week old, spontaneously hypertensive rats of the Okamoto strain, from Taconic Farms, Germantown, New York, having an average mean arterial blood pressure of 160±1.5 mm of mercury, were used in the test. One to 3 rats were used per test compound. […] A second identical dose of the test compound, without sodium chloride loading was given 24 hours later. At 28 hours after the initial dose the mean arterial blood pressure (MABP) was measured. The procedure was repeated in a second and third rat when necessary.

[2] = test system: CaCl2-induced cardiac arrhythmias, fibrillation and cardiac death in mice; assay: Antiarrhythmic/antifibrillatory activity in anesthetized mice, calcium chloride challenge; format: in vivo, mice of the Swiss Webster Strain; conditions: Mus musculus, iv, 0.25 h; Dose = 10 mg/kg I.V.; calcium chloride 200 mg/kg i.v.; 15 minutes observation; read-out: CaCl2 Mice Surviving / Mice Tested (converted)
Source text: (§1) Intravenous administration of high doses of calcium or potassium chloride in animals produces cardiac arrhythmias, cardiac fibrillation and cardiac arrest. Any agent that can prevent these events is considered an antiarrhythmic/antifibrillatory agent. (Meth. and Find Exptl. Clin Pharmacal.2:223-252(1980); Pharmacol Ther. 24:401-433 (1984); Experimental Cardiac and Antiarrhythmic Drugs, L. Szekeres and Gy. J. Dapp, Akademiai Kiado Preso, Budapest, 9-448 (1971)).
(§2) The method employed is as follows: Male mice of the Swiss Webster Strain (Charles River, Wilmington, MA) weighing 25-35 g were anesthetized with ethyl carbamate (urethan) (1.5g/kg body weight i.p.). A 25-gauge needle attached to PE-20 tubing was inserted into a caudal vein for drug administration. The lead II ECG was recorded by needle electrodes placed subcutaneously in the limbs. All data were collected on a Gould Brush recorder. Animals were observed 5 minutes before drug administration. A 5, 15 or 30 minute period following drug administration was allowed before the bolus injection of calcium chloride, 200 mg/ kg i.v. or potassium chloride, 62.5 mg/kg i.v. Control mice received 4 ml/kg of 0.9% sodium chloride i.v. Mice were observed an additional 15 minutes for arrhythmias,fibrillation, survival or death. Any compound at a dose of less than 20 mg/kg i.v. in either test that protects from cardiac death 3 or more mice out of 6 mice, is considered active.

[3] = biological target: T1, thromboxane synthetase enzyme (Rattus norvegicus, UniProt P49430); assay: Thromboxane synthetase enzyme inhibition (TXB2 formation in platelet suspension, RIA); format: cell-based, Okamoto-Aoki spontaneously hypertensive rats (SHR); conditions: concentration 1 × 10^-4 M; SHR platelet suspension, 10 minutes at 37° C.
T1 construct: The platelets were isolated by centrifuging the PRP for 10 minutes; from tissue; host or cells: washed platelets from arterial blood of Okamoto-Aoki spontaneously hypertensive rats (animals from Taconic Farms)
T1 sequence (P49430 1-533): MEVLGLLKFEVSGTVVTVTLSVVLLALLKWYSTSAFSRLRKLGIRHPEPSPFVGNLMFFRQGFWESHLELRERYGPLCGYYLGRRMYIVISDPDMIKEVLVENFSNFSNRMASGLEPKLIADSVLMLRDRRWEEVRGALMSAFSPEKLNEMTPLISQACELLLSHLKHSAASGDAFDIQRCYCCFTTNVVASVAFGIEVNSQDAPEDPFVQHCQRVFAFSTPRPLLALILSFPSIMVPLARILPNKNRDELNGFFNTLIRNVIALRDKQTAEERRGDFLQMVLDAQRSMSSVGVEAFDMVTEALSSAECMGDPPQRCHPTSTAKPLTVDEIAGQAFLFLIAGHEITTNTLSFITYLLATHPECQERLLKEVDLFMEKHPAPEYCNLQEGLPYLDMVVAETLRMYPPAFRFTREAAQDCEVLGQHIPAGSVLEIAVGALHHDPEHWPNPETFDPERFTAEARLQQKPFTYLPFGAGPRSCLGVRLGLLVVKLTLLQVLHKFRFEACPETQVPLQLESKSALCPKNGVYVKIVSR
Method: Under urethan anethesia, […] of arterial blood from Okamoto-Aoki spontaneously hypertensive rats (SHR) (Taconic Farms, Germantown, New York) between 19 and 24 weeks in age was collected in 1 ml of 3.2% sodium citrate in a polystyrene tube. The blood was diluted with 3 ml of cold saline and centrifuged at room temperature for 15 minutes at 460Xg. The platelet rich plasma (PRP) was separated. The platelets were isolated by centrifuging the PRP for 10 minutes at 1060Xg and were washed in 4 ml of cold oxygenated Krebs phosphate buffer, pH 7.4. The chilled platelets, recovered from centrifuging at 800Xg for 10 minutes, were resuspended in oxygenated Krebs phosphate buffer and diluted to contain 4.5-6.0×10^4 platelets/μl. The inhibition of thromboxane (TX) formation was studied by determining the concentration of thromboxane B2 (TXB2), the stable hydrolysis product of TXA2. Assay samples, prepared on ice, contained 200 μl platelet suspension, 50 μl saline, and 50 μl vehicle or drug under study at a concentration of 1×10^-4 M. The samples were incubated for 10 minutes at 37° C. in metabolic shaker. The reaction was terminated by immersing the tubes in an ice bath and adding 50 μl of 0.5M citric acid. The samples were centrifuged for 10 minutes in a refrigerated centrifuge and the supernatants thus obtained were decanted and stored at -20° C. The TXB2 content for each sample was determined by a direct radioimmunoassay (RIA) utilizing a TXB2 specific RIA kit purchased from New England Nuclear, Boston, Massachusetts and expressed as pg TXB2 formed minute^-1 sample^-1, from which the percent inhibition of TXB2 formation was calculated.

[4] = test system: KCl-induced cardiac arrhythmias, fibrillation and cardiac death in mice; assay: Antiarrhythmic/antifibrillatory activity in anesthetized mice, potassium chloride challenge; format: in vivo, mice of the Swiss Webster Strain; conditions: Mus musculus, iv, 0.25 h; Dose = 10 mg/kg I.V.; potassium chloride 62.5 mg/kg i.v.; 15 minutes observation; read-out: KCl Mice Surviving / Mice Tested (converted)
Source text: as §1, §2

SMILES | Avg. MABP in mm Hg (No. of Rats) [1] | responders at 10 mg/kg [2] | inhibition at 100 µM [3] | responders at 10 mg/kg [4]
CN1C(=NCCCc2cccnc2)c2cccc3cccc1c23 [Example 26, N-(1 Methylbenz[cd]indol-2(1H) -ylidene)-3-pyridinepropanamine, (E)-2-butenedioate (2:3)] | 114 mm Hg | 16.7% | 93% | 33.3%
c1cc2c3c(cccc3c1)N(CCN1CCOCC1)C2=NCCCn1ccnc1 [Example 8, N-[1-[2-(4-Morpholinyl)ethyl]benz[cd]indol-2(1H)-ylidene-1H-imidazole-1-propanamine, (E)-2-butenedioate (1:2)] | 119 mm Hg | 0% | 96% | 83.3%
CC(CCn1ccnc1)N=C1c2cccc3cccc(c23)N1C(c1ccccc1)c1ccccc1 (stereo not drawn) [Example 35, N-[1-(Diphenylmethyl)benz[cd]indol-2(1H)-ylidene]alpha-methyl-1H-imidazole-1-propanamine] | 127 mm Hg | 0% | 88% | 50%
c1ccc(CN2C(=NCCCCn3ccnc3)c3cccc4cccc2c34)cc1 [Example 23, N-[1-(Phenylmethyl)benz[cd]indol-2(1H)-ylidene-1H-imidazole-1-butanamine,(E)-2-butenedioate (1:2)] | 124 mm Hg | 33.3% | 100% | 100%
N#CCCCCN1C(=NCCCCc2cccnc2)c2cccc3cccc1c23 [Example 32, N2-[[4-(3-Pyridinyl)butyl]imino]benz[cd]indole-1(2H)-pentanenitrile, (E)2-butenedioate (4:7)] | 129 mm Hg | 33.3% | 98% | 83.3%
